Laboratory results reported in PubChem BioAssay AID248 (DTP/NCI, 2004).
Where “and” joins values, the source holds several entries; their conditions need not be identical. Equal values may be shown once. Toxic doses and inconclusive results are not listed.

Test system: L1210 leukemia ip in BDF1 mice, survival T/C
Test: NCI In Vivo Anticancer Drug Screen. Data for tumor model L1210 Leukemia (intraperitoneal) in B6D2F1 (BDF1) mice
Settings: endpoint: mean survival time, higher = longer survival
Outline: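 Survival endpoint. Drug-treated group vs vehicle group, expressed as T divided by C. Tumor passaged by transplantation.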

[1] = dose: 100.0 mg/kg/injection, schedule: Q04DX002 (ip), vehicle: Klucel (hydroxypropylcellulose) (HPC)
[2] = dose: 200.0 mg/kg/injection, schedule: Q04DX002 (ip), vehicle: Klucel (hydroxypropylcellulose) (HPC)
[3] = dose: 400.0 mg/kg/injection, schedule: Q04DX002 (ip), vehicle: Klucel (hydroxypropylcellulose) (HPC)
[4] = dose: 100.0 mg/kg/injection, schedule: Q01DX001 (ip), vehicle: saline
[5] = dose: 100.0 mg/kg/injection, schedule: Q04DX003 (ip), vehicle: saline with Tween-80
[6] = dose: 200.0 mg/kg/injection, schedule: Q04DX003 (ip), vehicle: saline with Tween-80
[7] = dose: 400.0 mg/kg/injection, schedule: Q04DX003 (ip), vehicle: saline with Tween-80
[8] = dose: 100.0 mg/kg/injection, schedule: Q04DX003 (ip), vehicle: other
[9] = dose: 100.0 mg/kg/injection, schedule: Q01DX009 (ip), vehicle: saline with Tween-80
[10] = dose: 200.0 mg/kg/injection, schedule: Q01DX009 (ip), vehicle: saline with Tween-80
[11] = dose: 50.0 mg/kg/injection, schedule: Q04DX002 (ip), vehicle: other
[12] = dose: 100.0 mg/kg/injection, schedule: Q04DX002 (ip), vehicle: other
[13] = dose: 100.0 mg/kg/injection, schedule: Q04DX003 (ip), vehicle: Klucel (hydroxypropylcellulose) (HPC)
[14] = dose: 200.0 mg/kg/injection, schedule: Q04DX003 (ip), vehicle: Klucel (hydroxypropylcellulose) (HPC)
[15] = dose: 400.0 mg/kg/injection, schedule: Q04DX003 (ip), vehicle: Klucel (hydroxypropylcellulose) (HPC)

With `Nc1nc(=S)c2[nH]c(=S)[nH]c2[nH]1` the T/C (dose: 12.0 mg/kg/injection, schedule: Q01DX009 (ip), vehicle: saline) was 119 % of control, the T/C (dose: 15.0 mg/kg/injection, schedule: Q01DX Z (ip), vehicle: saline) was 119 % of control and the T/C (dose: 23.0 mg/kg/injection, schedule: Q01DX Z (ip), vehicle: saline) was 124 % of control. For the same molecule, the T/C (dose: 175.0 mg/kg/injection, schedule: Q01DX001 (ip), vehicle: saline) was 121 % of control and the T/C (dose: 400.0 mg/kg/injection, schedule: Q01DX Z (ip), vehicle: carboxymethylcellulose (CMC)) was 98 % of control.
With `Cc1c(C)c(C)c(CC2(C)CSC2)c(CC2(C)CSC2)c1C` the T/C [1] was 100 % of control, the T/C [2] was 91 % of control and the T/C [3] was 94 % of control.
In the case of `CCN(CC)CCOC(=O)c1ccccc1S(N)(=O)=O`, the T/C [4] was 104 % of control, the T/C (dose: 200.0 mg/kg/injection, schedule: Q01DX001 (ip), vehicle: saline) was 101 % of control and the T/C (dose: 400.0 mg/kg/injection, schedule: Q01DX001 (ip), vehicle: saline) was 98 % of control.
For `C=C(C)C(=O)OCC1COc2c(cc(O)c(C)c2C)C1` (configuration not stated), the T/C [5] was 107 % of control, the T/C [6] was 98 % of control and the T/C [7] was 98 % of control.
With `CSc1cc(=O)n(C2OC(COC(C)=O)C(OC(C)=O)C2OC(C)=O)c(=O)[nH]1` (configuration not stated) the T/C (dose: 100.0 mg/kg/injection, schedule: Q01DX005 (ip), vehicle: saline) was 95 % of control and the T/C (dose: 200.0 mg/kg/injection, schedule: Q01DX005 (ip), vehicle: saline) was 97 % of control.
`CNc1ccc(OC)cc1` was tested, and the T/C (dose: 100.0 mg/kg/injection, schedule: Q01DX009 (ip), vehicle: other) was 95 % of control, the T/C [8] was 101 % of control and the T/C (dose: 200.0 mg/kg/injection, schedule: Q01DX009 (ip), vehicle: other) was 111 % of control. For the same molecule, the T/C (dose: 200.0 mg/kg/injection, schedule: Q04DX003 (ip), vehicle: other) was 101 % of control, the T/C (dose: 400.0 mg/kg/injection, schedule: Q01DX009 (ip), vehicle: other) was 124 % of control and the T/C (dose: 400.0 mg/kg/injection, schedule: Q04DX003 (ip), vehicle: other) was 104 % of control.
For `COc1c(O)c(O)cc2c[n+]3ccccc3c(C)c12`, the T/C (dose: 50.0 mg/kg/injection, schedule: Q01DX009 (ip), vehicle: Klucel (hydroxypropylcellulose) (HPC)) was 95 % of control.
With `COc1ccc(NC(=O)Nc2ccccc2)cc1` the T/C (dose: 50.0 mg/kg/injection, schedule: Q04DX002 (ip), vehicle: Klucel (hydroxypropylcellulose) (HPC)) was 105 % of control, the T/C [1] was 98 % of control and 102 % of control and the T/C [2] was 99 % of control. The T/C [3] was 91 % of control.
With `C[S+]1CCCCC1` the T/C (dose: 50.0 mg/kg/injection, schedule: Q01DX001 (ip), vehicle: saline) was 96 % of control and the T/C [4] was 100 % of control.
`CCCCCCCCCCCCCCCCCC(=O)OCC(COC(=O)CCCCCCCC(CO)CCCCCCCCC)OC(=O)CCCCCCCC(CO)CCCCCCCCC` (configuration not stated) was tested, and the T/C [1] was 101 % of control, the T/C [2] was 101 % of control and the T/C [3] was 101 % of control.
With `Cc1ccc(C(C)(c2ccccc2)C(C)(CC=O)CC(=O)O)cc1` (configuration not stated) the T/C [5] was 92 % of control, the T/C [6] was 92 % of control and the T/C [7] was 96 % of control.
`CCOC(=O)c1ccc(NC(=O)N2CCCCC2C)cc1` (configuration not stated) was tested, and the T/C (dose: 100.0 mg/kg/injection, schedule: Q01DX001 (ip), vehicle: saline with Tween-80) was 93 % of control, the T/C [9] was 104 % of control and the T/C (dose: 100.0 mg/kg/injection, schedule: Q04DX002 (ip), vehicle: saline with Tween-80) was 97 % of control and 99 % of control. The T/C [5] was 88 % of control, the T/C (dose: 200.0 mg/kg/injection, schedule: Q01DX001 (ip), vehicle: saline with Tween-80) was 89 % of control and the T/C [10] was 104 % of control. For the same molecule, the T/C (dose: 200.0 mg/kg/injection, schedule: Q04DX002 (ip), vehicle: saline with Tween-80) was 92 % of control and 100 % of control, the T/C [6] was 96 % of control and the T/C (dose: 400.0 mg/kg/injection, schedule: Q01DX001 (ip), vehicle: saline with Tween-80) was 91 % of control. The T/C (dose: 400.0 mg/kg/injection, schedule: Q01DX009 (ip), vehicle: saline with Tween-80) was 97 % of control, the T/C (dose: 400.0 mg/kg/injection, schedule: Q04DX002 (ip), vehicle: saline with Tween-80) was 94 % of control and 99 % of control and the T/C [7] was 96 % of control.
With `Nc1n[nH]c2ccccc12` the T/C (dose: 50.0 mg/kg/injection, schedule: Q04DX002 (ip), vehicle: gum acacia) was 104 % of control, the T/C (dose: 100.0 mg/kg/injection, schedule: Q04DX002 (ip), vehicle: gum acacia) was 107 % of control and the T/C (dose: 200.0 mg/kg/injection, schedule: Q04DX002 (ip), vehicle: gum acacia) was 100 % of control.
In the case of `COC(=O)c1cccn1C(=O)c1ccccc1[N+](=O)[O-]`, the T/C [11] was 105 % of control, the T/C [12] was 97 % of control and the T/C (dose: 200.0 mg/kg/injection, schedule: Q04DX002 (ip), vehicle: other) was 94 % of control.
In the case of `Cc1cc(Cl)ccc1NC(=O)c1ccccc1`, the T/C (dose: 100.0 mg/kg/injection, schedule: Q01DX009 (ip), vehicle: Klucel (hydroxypropylcellulose) (HPC)) was 98 % of control, the T/C [13] was 103 % of control and the T/C (dose: 200.0 mg/kg/injection, schedule: Q01DX009 (ip), vehicle: Klucel (hydroxypropylcellulose) (HPC)) was 105 % of control. For the same molecule, the T/C [14] was 92 % of control, the T/C (dose: 400.0 mg/kg/injection, schedule: Q01DX009 (ip), vehicle: Klucel (hydroxypropylcellulose) (HPC)) was 96 % of control and the T/C [15] was 97 % of control.
For `N#CC1(c2ccccc2)CC(C(=O)c2ccccc2)C(O)(c2ccccc2)CC1c1ccccc1` (configuration not stated), the T/C (dose: 50.0 mg/kg/injection, schedule: Q01DX009 (ip), vehicle: saline with Tween-80) was 101 % of control, the T/C [9] was 108 % of control and the T/C [10] was 101 % of control.
For `COc1ccccc1/C=N/N=C(N)N`, the T/C (dose: 15.5 mg/kg/injection, schedule: Q01DX Z (ip), vehicle: other) was 97 % of control and the T/C (dose: 31.0 mg/kg/injection, schedule: Q01DX Z (ip), vehicle: other) was 96 % of control.
For `CCCCNC(C)(C)C(S)c1ccc(Cl)cc1` (configuration not stated), the T/C (dose: 12.0 mg/kg/injection, schedule: Q01DX009 (ip), vehicle: Klucel (hydroxypropylcellulose) (HPC)) was 104 % of control and the T/C (dose: 25.0 mg/kg/injection, schedule: Q01DX009 (ip), vehicle: Klucel (hydroxypropylcellulose) (HPC)) was 108 % of control.
In the case of `CCNC(=S)N/N=C(/c1ccc(OC)cc1)P(=O)(OCC)OCC`, the T/C [13] was 104 % of control, the T/C [14] was 100 % of control and the T/C [15] was 89 % of control.
With `CC1(C)CN(Cc2ccc(Cl)cc2)C1=O` the T/C (dose: 44.0 mg/kg/injection, schedule: Q01DX001 (ip), vehicle: other) was 97 % of control, the T/C (dose: 44.0 mg/kg/injection, schedule: Q01DX009 (ip), vehicle: saline with Tween-80) was 90 % of control and the T/C (dose: 44.0 mg/kg/injection, schedule: Q04DX003 (ip), vehicle: other) was 96 % of control. For the same molecule, the T/C [11] was 154 % of control, the T/C (dose: 66.0 mg/kg/injection, schedule: Q01DX001 (ip), vehicle: other) was 100 % of control and the T/C (dose: 66.0 mg/kg/injection, schedule: Q01DX009 (ip), vehicle: saline with Tween-80) was 89 % of control. The T/C (dose: 66.0 mg/kg/injection, schedule: Q04DX003 (ip), vehicle: other) was 101 % of control, the T/C (dose: 100.0 mg/kg/injection, schedule: Q01DX001 (ip), vehicle: other) was 96 % of control and the T/C [9] was 91 % of control. For the same molecule, the T/C [12] was 92 % of control and 113 % of control, the T/C [8] was 100 % of control and the T/C (dose: 150.0 mg/kg/injection, schedule: Q01DX001 (ip), vehicle: other) was 98 % of control. For the same molecule, the T/C (dose: 150.0 mg/kg/injection, schedule: Q01DX009 (ip), vehicle: saline with Tween-80) was 92 % of control, the T/C (dose: 150.0 mg/kg/injection, schedule: Q04DX003 (ip), vehicle: other) was 103 % of control and the T/C (dose: 225.0 mg/kg/injection, schedule: Q01DX001 (ip), vehicle: other) was 100 % of control. For the same molecule, the T/C (dose: 225.0 mg/kg/injection, schedule: Q01DX009 (ip), vehicle: saline with Tween-80) was 93 % of control, the T/C (dose: 225.0 mg/kg/injection, schedule: Q04DX003 (ip), vehicle: other) was 96 % of control and the T/C (dose: 400.0 mg/kg/injection, schedule: Q04DX002 (ip), vehicle: other) was 95 % of control and 103 % of control.
